Results taken from US20030235577A1, “Methods and compositions for preventing and treating microbial infections” (priority 2002, published 2003).

What was measured:
S. aureus [1] = assay: Peritonitis model, peptide injected intraperitoneally after S. aureus; format: in vivo, C57/B16 mice; details: 72 hour time point, peptide 1 mg intraperitoneally; for survival: S. aureus 6×10^7 CFU
Method: Bacterial preparation: Staphylococcus aureus a clinical isolate was grown in tryptic soy broth for 18 hours at 37° C. An aliquot was placed in fresh media and grown until mid-log phase of growth. S. aureus was centrifuged and washed in sterile PBS and diluted. Bacteria concentration of O.D.540 of 0.9, corresponding to a concentration of 6×10^7 CFU/ml was used for inoculation.
Peptide preparation: Murine MMP-12 C-terminal peptide […] (SEQ ID NO:37; 333-352) and Human MMP-12 C-terminal peptide […] (SEQ ID NO:36; 341-359) and a human MMP-12 peptide with a single nucleotide polymorphism: […] (SEQ ID NO:55) were solubilized in sterile H2O at a concentration of 4 mg/ml.
Peritonitis model: C57/B16 mice received intraperitoneal injection of bacteria in a total volume of 1 ml (6×10^7 CFU). Peptides were intraperitoneally injected immediately after at a dose of 1 mg. […] The control mice received the same intraperitoneal injection of bacteria as in the test groups and then received an injection of vehicle with no peptide.

S aureus = assay: Dose response of S. aureus to MMP-12 C-terminal peptides; format: cell-based, Staphylococcus aureus; details: various concentrations of peptide, 100 minutes
Method: Dose response: samples of S aureus were incubated with various concentrations of murine peptide (SEQ ID NO: 37), human peptide (SEQ ID NO: 36) and Human SNP peptide (SEQ ID NO:55). The human SNP peptide (SEQ ID NO:55) has a single nucleotide change from the sequence of SEQ ID NO 36. The peptide SEQ ID NO:36 has the amino acid sequence: […] and the peptide SEQ ID NO:55 has the amino acid sequence […]. The amount of bacteria remaining at various the various concentrations was determined for each group of a 100 minute time course.

S. aureus [2] = assay: In vitro antimicrobial activity, co-incubation with S. aureus in 5% LB and CFU count; format: cell-based, Staphylococcus aureus; details: S. aureus, 5% LB culture, similar doses and conditions as full-length MMP-12
Method: S. aureus co-culture was incubated for 60 minutes with doses of MMP-12 C-terminal. Aliquots of cultures were diluted in PBS at 1:10 and 1:100 dilution. Dilutions were plated on LB agar plates for 18 hour incubation at 37° C. Controls consisted of column fractions that lacked MMP-12 carboxy terminal determined by immunoblotting.
MMP-12's mechanism of action as a host defense protein was investigated. To test for direct activity, functional full-length recombinant human MMP-12 was incubated with S. aureus in a 5% LB culture. […] MMP-12 enzymatic activity was not required for this antimicrobial effect.
Mid-log phase bacteria (10^5) were incubated in the absence or presence of purified MMP-12 C-terminal in a total volume of 100 μl of 10 mmol/L sodium phosphate containing 5% (vol/vol) TSB at 37° C. for 1 hour. Serial dilutions were then spread on agarose plates and the number of CFUs were determined after overnight incubation.

S. aureus [3] = assay: Propidium iodide exclusion assay with fluorescence microscopy; format: cell-based, Staphylococcus aureus; details: 20 μg/ml, 30 minutes
Method: Recombinant segments of MMP-12 C-terminal were generated each covering one third of the C-terminal. Segments were then tested for anti-microbial activity against S. aureus. […] We hypothesized that in this region there was a secondary structure that had potential antimicrobial structure and properties consistent with the structure in cathelicidins. A predicted amphipathic and alpha helical structure was found in this region, which was conserved in the MMP-12 C-terminal domains from rabbit, rat, mouse and human. […] These studies have been repeated n>10 with similar results. FIG. 10 illustrates thae effect of MMP-12 C-terminal domain on cell survival.

Substance	amount of S. aureus remaining (S aureus)	direct antimicrobial activity (S. aureus [2])	other results
ARNQVFLFKDDKYWLISNLR (listed as Homo sapiens) [Human MMP-12 peptide]	zero S. aureus at most concentrations	–	activity (clinical observation) (S. aureus [1]): normal activity; survival (S. aureus [1]): 100%
ARNQVFLFKDDKYWLISSLR (listed as Homo sapiens) [Human SNP]	zero S aureus at all concentrations	–	–
MMP-3: commercially available full length pro-MMP 3 [reference compound]	–	did not demonstrate this direct antimicrobial activity	–
MMP-7: commercially available full length pro-MMP 7 [reference compound]	–	did not demonstrate this direct antimicrobial activity	–
MMP-8: commercially available full length pro-MMP 8 [reference compound]	–	did not demonstrate this direct antimicrobial activity	–
SRDLMFIFRGRKFWALNGYD [MMP-13 peptide, reference compound]	–	–	bacterial death, uptake of membrane impermeant dye (S. aureus [3]): little dye uptake
SRNQLFLFKDEKYWLINNLV (listed as Mus musculus) [Murine MMP-12 peptide]	higher at each concentration	–	bacterial death, uptake of membrane impermeant dye (S. aureus [3]): clumping and increased uptake of membrane impermeant dye; activity (clinical observation) (S. aureus [1]): decrease activity; survival (S. aureus [1]): 75%
